According to ChEMBL document CHEMBL1144577, “1,5-Biaryl pyrrole derivatives as EP1 receptor antagonists. Structure-activity relationships of 6-substituted and 5,6-disubstituted benzoic acid derivatives” (Bioorg Med Chem Lett, 2007):
Values belong to the molecule of their own block, whether it stands above or below them.

What was measured:
[1] = target: T1, Prostaglandin E2 receptor EP4 subtype (Homo sapiens, UniProt P35408); assay: Inhibition of human EP4 recombinant receptor expressed in CHO cells by cAMP mobilisation assay; type: functional, cell-based
T1 sequence (P35408 whole entry): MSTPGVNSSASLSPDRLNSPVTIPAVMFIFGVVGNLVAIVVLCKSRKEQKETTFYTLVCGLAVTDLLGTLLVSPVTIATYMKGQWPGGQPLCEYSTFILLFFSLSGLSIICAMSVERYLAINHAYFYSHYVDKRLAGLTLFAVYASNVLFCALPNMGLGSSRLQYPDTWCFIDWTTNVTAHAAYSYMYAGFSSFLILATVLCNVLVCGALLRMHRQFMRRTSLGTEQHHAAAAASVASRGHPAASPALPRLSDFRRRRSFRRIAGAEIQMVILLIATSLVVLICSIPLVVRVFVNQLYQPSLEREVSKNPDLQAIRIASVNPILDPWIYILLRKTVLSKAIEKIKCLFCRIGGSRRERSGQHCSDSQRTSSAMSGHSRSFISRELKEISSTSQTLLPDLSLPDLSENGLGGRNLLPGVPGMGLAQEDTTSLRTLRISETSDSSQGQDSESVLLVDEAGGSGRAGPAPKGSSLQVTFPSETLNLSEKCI

[2] = target: T2, Prostaglandin E2 receptor EP1 subtype (Homo sapiens, UniProt P34995); assay: Inhibition of human recombinant EP1 receptor expressed in CHO cells by calcium mobilisation assay; type: functional, cell-based
T2 sequence (P34995 whole entry): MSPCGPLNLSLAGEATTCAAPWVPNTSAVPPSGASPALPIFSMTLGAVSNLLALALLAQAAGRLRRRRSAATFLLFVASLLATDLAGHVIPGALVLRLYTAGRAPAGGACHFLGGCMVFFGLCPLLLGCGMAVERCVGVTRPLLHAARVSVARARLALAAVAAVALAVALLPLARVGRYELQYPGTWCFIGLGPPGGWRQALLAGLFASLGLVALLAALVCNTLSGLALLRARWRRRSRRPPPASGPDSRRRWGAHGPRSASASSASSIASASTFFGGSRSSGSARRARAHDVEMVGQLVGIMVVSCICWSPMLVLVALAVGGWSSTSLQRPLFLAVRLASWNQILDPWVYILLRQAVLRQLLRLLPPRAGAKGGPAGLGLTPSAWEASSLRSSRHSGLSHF

[3] = target: T1, Prostaglandin E2 receptor EP4 subtype; assay: Binding affinity to human EP4 receptor expressed in CHO cells; type: cell-based
[4] = Ratio of drug level in brain to blood in rat FCA model of inflammatory pain at 30 mg/kg, po after 24 hrs; type: ADME, organism-based; parameters: dose 30 mg/kg, route oral; settings: brain and blood
[5] = Ratio of drug level in brain to blood in rat FCA model of inflammatory pain at 30 mg/kg, po after 4 hrs; type: ADME, organism-based; parameters: dose 30 mg/kg, route oral; settings: brain and blood
[6] = Drug level in brain of rat FCA model of inflammatory pain at 30 mg/kg, po after 4 hrs; type: ADME, organism-based; parameters: dose 30 mg/kg, route oral; settings: read-out: Drug uptake
[7] = system: Rattus norvegicus; assay: Normalized AUC (0 to t) in rat at 3 mg/kg, po; type: ADME, organism-based; parameters: dose 3 mg/kg, route oral; settings: in vivo
[8] = Volume of distribution in rat at 1 mg/kg, iv or 3 mg/kg, po; type: ADME, organism-based; settings: in vivo, read-out: Vss
[9] = Ratio of drug level in brain to blood in rat FCA model of inflammatory pain at 30 mg/kg, po after 1 hr; type: ADME, organism-based; parameters: dose 30 mg/kg, route oral; settings: brain and blood
[10] = Cmax in rat at 3 mg/kg, po; type: ADME, organism-based; parameters: dose 3 mg/kg, route oral; settings: in vivo
[11] = system: Liver microsomes; assay: Intrinsic clearance in human liver microsomes; type: ADME, Microsome
[12] = Drug level in blood of rat FCA model of inflammatory pain at 30 mg/kg, po after 8 hrs; type: ADME, organism-based; parameters: dose 30 mg/kg, route oral; settings: read-out: Drug uptake
[13] = Drug level in brain of rat FCA model of inflammatory pain at 30 mg/kg, po after 6 hrs; type: ADME, organism-based; parameters: dose 30 mg/kg, route oral; settings: read-out: Drug uptake
[14] = Drug level in blood of rat FCA model of inflammatory pain at 30 mg/kg, po after 2 hrs; type: ADME, organism-based; parameters: dose 30 mg/kg, route oral; settings: read-out: Drug uptake
[15] = Drug level in blood of rat FCA model of inflammatory pain at 30 mg/kg, po after 6 hrs; type: ADME, organism-based; parameters: dose 30 mg/kg, route oral; settings: read-out: Drug uptake
[16] = Blood clearance in rat at 1 mg/kg, iv or 3 mg/kg, po; type: ADME, organism-based
[17] = Intrinsic clearance in monkey liver microsomes; type: ADME, Macaca mulatta, Microsome; settings: rhesus monkey
[18] = target: Prostacyclin receptor (Homo sapiens, UniProt P43119); assay: Inhibition of human recombinant IP receptor expressed in CHO cells […] by calcium mobilisation assay; type: functional, cell-based
Prostacyclin receptor, sequence (P43119 whole entry): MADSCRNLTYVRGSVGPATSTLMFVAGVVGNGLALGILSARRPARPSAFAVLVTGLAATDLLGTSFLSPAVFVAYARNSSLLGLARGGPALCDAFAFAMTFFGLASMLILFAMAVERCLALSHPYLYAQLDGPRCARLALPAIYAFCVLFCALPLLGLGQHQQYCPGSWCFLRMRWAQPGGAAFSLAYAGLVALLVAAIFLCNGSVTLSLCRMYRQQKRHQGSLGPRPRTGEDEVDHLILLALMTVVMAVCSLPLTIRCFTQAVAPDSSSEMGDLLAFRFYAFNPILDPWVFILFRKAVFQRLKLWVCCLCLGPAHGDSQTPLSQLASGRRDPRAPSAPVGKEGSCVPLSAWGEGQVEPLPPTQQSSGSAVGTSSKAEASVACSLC

[19] = Drug level in brain of rat FCA model of inflammatory pain at 30 mg/kg, po after 1 hr; type: ADME, organism-based; parameters: dose 30 mg/kg, route oral; settings: read-out: Drug uptake
[20] = system: Rattus norvegicus; assay: Reversal of hypersensitivity in po dosed FCA rat model of inflammatory pain; type: functional
[21] = Drug level in brain of rat FCA model of inflammatory pain at 30 mg/kg, po after 0.25 hrs; type: ADME, organism-based; parameters: dose 30 mg/kg, route oral; settings: read-out: Drug uptake
[22] = system: Rattus norvegicus; assay: Reversal of hypersensitivity in FCA rat model of inflammatory pain at 5 mg/kg, po; type: functional
[23] = Drug level in brain of rat FCA model of inflammatory pain at 30 mg/kg, po after 24 hrs; type: ADME, organism-based; parameters: dose 30 mg/kg, route oral; settings: read-out: Drug uptake
[24] = Drug level in brain of rat FCA model of inflammatory pain at 30 mg/kg, po after 8 hrs; type: ADME, organism-based; parameters: dose 30 mg/kg, route oral; settings: read-out: Drug uptake
[25] = target: Prostaglandin E2 receptor EP2 subtype (Homo sapiens, UniProt P43116); assay: Inhibition of human recombinant EP2 receptor expressed in CHO cells […] by calcium mobilisation assay; type: functional, cell-based
Prostaglandin E2 receptor EP2 subtype, sequence (P43116 whole entry): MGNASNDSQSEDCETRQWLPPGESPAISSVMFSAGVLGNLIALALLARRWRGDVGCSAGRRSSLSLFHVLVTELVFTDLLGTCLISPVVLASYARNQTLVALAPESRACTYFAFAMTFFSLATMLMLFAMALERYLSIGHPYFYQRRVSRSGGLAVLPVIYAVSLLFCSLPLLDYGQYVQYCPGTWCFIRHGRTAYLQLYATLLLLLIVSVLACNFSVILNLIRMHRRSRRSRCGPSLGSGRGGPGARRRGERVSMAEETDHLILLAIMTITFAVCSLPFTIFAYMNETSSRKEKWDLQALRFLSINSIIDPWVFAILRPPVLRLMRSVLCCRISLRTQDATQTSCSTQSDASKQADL

[26] = Half life in rat at 1 mg/kg, iv or 3 mg/kg, po; type: ADME, organism-based; settings: in vivo
[27] = Drug level in blood of rat FCA model of inflammatory pain at 30 mg/kg, po after 1 hr; type: ADME, organism-based; parameters: dose 30 mg/kg, route oral; settings: read-out: Drug uptake
[28] = Bioavailability in rat at 3 mg/kg, po; type: ADME, organism-based; settings: in vivo
[29] = Tmax in rat at 3 mg/kg, po; type: ADME, organism-based; parameters: dose 3 mg/kg, route oral; settings: in vivo
[30] = Ratio of drug level in brain to blood in rat FCA model of inflammatory pain at 30 mg/kg, po after 6 hrs; type: ADME, organism-based; parameters: dose 30 mg/kg, route oral; settings: brain and blood
[31] = Ratio of drug level in brain to blood in rat FCA model of inflammatory pain at 30 mg/kg, po after 8 hrs; type: ADME, organism-based; parameters: dose 30 mg/kg, route oral; settings: brain and blood
[32] = Ratio of drug level in brain to blood in rat FCA model of inflammatory pain at 30 mg/kg, po after 0.25 hrs; type: ADME, organism-based; parameters: dose 30 mg/kg, route oral; settings: brain and blood
[33] = Drug level in brain of rat FCA model of inflammatory pain at 30 mg/kg, po after 2 hrs; type: ADME, organism-based; parameters: dose 30 mg/kg, route oral; settings: read-out: Drug uptake
[34] = Drug level in blood of rat FCA model of inflammatory pain at 30 mg/kg, po after 0.25 hrs; type: ADME, organism-based; parameters: dose 30 mg/kg, route oral; settings: read-out: Drug uptake
[35] = Intrinsic clearance in dog liver microsomes; type: ADME, Canis lupus familiaris, Microsome
[36] = Ratio of drug level in brain to blood in rat FCA model of inflammatory pain at 30 mg/kg, po after 2 hrs; type: ADME, organism-based; parameters: dose 30 mg/kg, route oral; settings: brain and blood
[37] = target: T2, Prostaglandin E2 receptor EP1 subtype; assay: Displacement of [3H]PGE2 from human recombinant EP1 receptor expressed in CHOK1 cell membrane; type: cell membranes, CHO-K1
[38] = Drug level in blood of rat FCA model of inflammatory pain at 30 mg/kg, po after 4 hrs; type: ADME, organism-based; parameters: dose 30 mg/kg, route oral; settings: read-out: Drug uptake
[39] = target: T3, Thromboxane A2 receptor (Homo sapiens, UniProt P21731); assay: Inhibition of human recombinant TP receptor expressed in CHO cells by calcium mobilisation assay; type: functional, cell-based
T3 sequence (P21731 whole entry): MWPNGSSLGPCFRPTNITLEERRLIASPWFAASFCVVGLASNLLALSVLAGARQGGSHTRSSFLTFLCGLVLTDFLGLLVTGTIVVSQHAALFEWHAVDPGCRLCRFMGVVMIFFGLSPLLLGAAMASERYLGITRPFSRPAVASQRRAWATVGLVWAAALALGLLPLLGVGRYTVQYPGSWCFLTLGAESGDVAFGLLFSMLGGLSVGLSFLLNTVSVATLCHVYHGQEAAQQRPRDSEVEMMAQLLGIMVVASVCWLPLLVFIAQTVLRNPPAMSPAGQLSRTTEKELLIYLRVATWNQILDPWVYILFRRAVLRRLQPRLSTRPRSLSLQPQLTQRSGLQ

[40] = target: T4, Prostaglandin E2 receptor EP3 subtype (Homo sapiens, UniProt P43115); assay: Inhibition of human recombinant EP3 receptor expressed in CHO cells by calcium mobilisation assay; type: functional, cell-based
T4 sequence (P43115 whole entry): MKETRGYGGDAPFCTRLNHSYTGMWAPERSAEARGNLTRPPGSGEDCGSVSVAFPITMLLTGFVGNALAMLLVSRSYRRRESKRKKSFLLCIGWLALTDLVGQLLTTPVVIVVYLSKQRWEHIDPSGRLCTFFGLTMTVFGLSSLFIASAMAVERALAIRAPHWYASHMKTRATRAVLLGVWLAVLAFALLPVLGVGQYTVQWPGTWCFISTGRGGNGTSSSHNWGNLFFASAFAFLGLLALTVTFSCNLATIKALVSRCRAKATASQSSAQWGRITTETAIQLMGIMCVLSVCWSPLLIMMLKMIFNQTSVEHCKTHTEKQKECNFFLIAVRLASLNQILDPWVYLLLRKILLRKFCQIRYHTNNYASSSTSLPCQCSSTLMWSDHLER

[41] = target: Prostaglandin F2-alpha receptor (Homo sapiens, UniProt P43088); assay: Inhibition of human recombinant FP receptor expressed in CHO cells by calcium mobilisation assay; type: functional, cell-based
Prostaglandin F2-alpha receptor, sequence (P43088 whole entry): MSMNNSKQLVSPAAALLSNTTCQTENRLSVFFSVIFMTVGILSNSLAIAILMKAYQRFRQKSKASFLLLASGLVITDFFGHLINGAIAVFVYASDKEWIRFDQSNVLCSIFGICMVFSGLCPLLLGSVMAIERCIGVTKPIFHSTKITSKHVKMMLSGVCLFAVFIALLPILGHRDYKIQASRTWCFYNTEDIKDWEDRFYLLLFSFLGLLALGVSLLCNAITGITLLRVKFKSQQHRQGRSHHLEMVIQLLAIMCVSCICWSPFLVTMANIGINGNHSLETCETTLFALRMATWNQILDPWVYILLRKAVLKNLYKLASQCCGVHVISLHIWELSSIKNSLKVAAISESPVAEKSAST

Compound: Cc1ccc(-n2c(C)ccc2-c2cc(Cl)ccc2OCc2ccc(F)cc2)cc1C(=O)O
Ki [1]: 6310 nM
Ki [2]: 1 nM
IC50 [3]: 15800 nM
Ki [3]: 7940 nM
Kp at 24 h [4]: 0.5
Kp at 4 h [5]: 0.4
concentration at 4 h [6]: 1220 nM
AUC/dose [7]: 18 kg·min/L
Vd [8]: 2.6 L/kg
Kp at 1 h [9]: 0.4
Cmax [10]: 590 nM
CL [11]: <= 3.6 ml/min/g
concentration at 8 h [12]: 1600 nM
concentration at 6 h [13]: 913 nM
concentration at 2 h [14]: 5930 nM
concentration at 6 h [15]: 2310 nM
clearance [16]: 22 mL/min/kg
CL [17]: <= 3.6 ml/min/g
IC50 [18]: > 3160 nM
concentration at 1 h [19]: 3560 nM
ED50 [20]: 2.5 mg/kg
concentration at 0.25 h [21]: 2600 nM
Activity [22]: 75%
concentration at 24 h [23]: 31 nM
concentration at 8 h [24]: 753 nM
IC50 [25]: > 3160 nM
half-life [26]: 276 min
concentration at 1 h [27]: 10100 nM
bioavailability [28]: 45%
Tmax [29]: 30 min
Kp at 6 h [30]: 0.4
Kp at 8 h [31]: 0.4
Kp at 0.25 h [32]: 0.4
concentration at 2 h [33]: 2480 nM
concentration at 0.25 h [34]: 7360 nM
CL [35]: <= 3.6 ml/min/g
Kp at 2 h [36]: 0.4
IC50 [37]: 5.01 nM
concentration at 4 h [38]: 3560 nM
IC50 [39]: 39.8 nM
Ki [39]: 15.8 nM
Ki [40]: 501 nM
IC50 [41]: > 3160 nM

Compound: CC(=O)Nc1ccc(-n2c(C)ccc2-c2cc(Br)ccc2OCc2ccc(F)cc2F)cc1C(=O)O
IC50 [37]: 0.398 nM

Compound: Cc1c(N)cc(-n2c(C)ccc2-c2cc(Br)ccc2OCc2ccccc2)cc1C(=O)O
IC50 [37]: 3.16 nM

Compound: Cc1ccc(-c2cc(C(F)(F)F)ccc2OCc2ccc(F)cc2)n1-c1ccc(F)c(C(=O)O)c1
IC50 [37]: 7.94 nM

Compound: Cc1ccc(-n2c(C)ccc2-c2cc(Br)ccc2OCc2ccc(F)cc2F)cc1C(=O)O
IC50 [37]: 1.26 nM

Compound: Cc1ccc(-c2cc(Br)ccc2OCc2ccc(F)cc2F)n1-c1ccc(O)c(C(=O)O)c1
IC50 [37]: 2 nM

Compound: Cc1ccc(-c2cc(F)ccc2OCc2ccc(F)cc2)n1-c1cc(C(=O)O)c2ccccc2c1
IC50 [37]: 25.1 nM

Compound: Cc1ccc(-c2cc(Br)ccc2OCc2ccc(F)cc2F)n1-c1cc(C(=O)O)c2ccccc2c1
IC50 [37]: 2.51 nM

Compound: Cc1c(N)cc(-n2c(C)ccc2-c2cc(Cl)ccc2OCc2ccccc2)cc1C(=O)O
AUC/dose [7]: 39 kg·min/L
Cmax [10]: 2940 nM
Activity [22]: 35%
Tmax [29]: 30 min
IC50 [37]: 2 nM

The remaining molecules from weak to strong by IC50 [37], led by results:

IC50 [37]: 79.4 nM
Compound: Cc1ccc(OCc2ccc(F)cc2)c(-c2ccc(C)n2-c2cc(C(=O)O)c3ccccc3c2)c1

IC50 [37]: 15.8 nM
Compound: Cc1ccc(OCc2ccc(F)cc2)c(-c2ccc(C)n2-c2cc(N)c(C)c(C(=O)O)c2)c1

IC50 [37]: 12.6 nM
Compound: Cc1ccc(-c2cc(Br)ccc2OCc2ccccc2)n1-c1cc(C(=O)O)c2ccccc2c1

IC50 [37]: 5.01 nM
Compound: Cc1ccc(-c2cc(Br)ccc2OCc2ccccc2)n1-c1ccc(OC(F)F)c(C(=O)O)c1

IC50 [37]: 2.51 nM
Compound: Cc1ccc(-n2c(C)ccc2-c2cc(Cl)ccc2OCc2ccc(F)cc2F)cc1C(=O)O

IC50 [37]: 0.631 nM
Compound: Cc1ccc(-c2cc(Br)ccc2OCc2ccc(F)cc2F)n1-c1ccc(OC(F)F)c(C(=O)O)c1
